In this experiment the target is hCereblon(M1-L442)_hDDB1(M1-H1140) (Homo sapiens (Human), UniProt Q96SW2). Kind of experiment: Fluorescence direct binding (tryptophan fluorescence titration). The following applies: 20° C., excitation 280 nm, emission 340 nm, 50 mM Hepes 7.4 200 mM NaCl; read-out: Fluorescence h-Cereblon_DDB1 Mean Kd_EQ.
Chain of hCereblon(M1-L442)_hDDB1(M1-H1140) (Q96SW2 whole entry, looked up): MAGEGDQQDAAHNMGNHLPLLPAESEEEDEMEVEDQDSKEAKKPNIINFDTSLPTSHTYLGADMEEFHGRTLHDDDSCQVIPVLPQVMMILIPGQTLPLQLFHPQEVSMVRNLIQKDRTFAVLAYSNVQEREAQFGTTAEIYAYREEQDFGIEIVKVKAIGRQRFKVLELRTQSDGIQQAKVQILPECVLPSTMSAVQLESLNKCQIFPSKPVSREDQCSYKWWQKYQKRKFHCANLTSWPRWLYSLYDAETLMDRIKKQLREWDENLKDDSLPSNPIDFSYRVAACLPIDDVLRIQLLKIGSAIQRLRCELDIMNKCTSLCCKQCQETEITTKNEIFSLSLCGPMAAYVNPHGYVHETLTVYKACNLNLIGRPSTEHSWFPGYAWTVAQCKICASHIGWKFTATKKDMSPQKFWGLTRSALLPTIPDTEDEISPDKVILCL
Chain of hCereblon(M1-L442)_hDDB1(M1-H1140) (Q16531 whole entry partner, looked up): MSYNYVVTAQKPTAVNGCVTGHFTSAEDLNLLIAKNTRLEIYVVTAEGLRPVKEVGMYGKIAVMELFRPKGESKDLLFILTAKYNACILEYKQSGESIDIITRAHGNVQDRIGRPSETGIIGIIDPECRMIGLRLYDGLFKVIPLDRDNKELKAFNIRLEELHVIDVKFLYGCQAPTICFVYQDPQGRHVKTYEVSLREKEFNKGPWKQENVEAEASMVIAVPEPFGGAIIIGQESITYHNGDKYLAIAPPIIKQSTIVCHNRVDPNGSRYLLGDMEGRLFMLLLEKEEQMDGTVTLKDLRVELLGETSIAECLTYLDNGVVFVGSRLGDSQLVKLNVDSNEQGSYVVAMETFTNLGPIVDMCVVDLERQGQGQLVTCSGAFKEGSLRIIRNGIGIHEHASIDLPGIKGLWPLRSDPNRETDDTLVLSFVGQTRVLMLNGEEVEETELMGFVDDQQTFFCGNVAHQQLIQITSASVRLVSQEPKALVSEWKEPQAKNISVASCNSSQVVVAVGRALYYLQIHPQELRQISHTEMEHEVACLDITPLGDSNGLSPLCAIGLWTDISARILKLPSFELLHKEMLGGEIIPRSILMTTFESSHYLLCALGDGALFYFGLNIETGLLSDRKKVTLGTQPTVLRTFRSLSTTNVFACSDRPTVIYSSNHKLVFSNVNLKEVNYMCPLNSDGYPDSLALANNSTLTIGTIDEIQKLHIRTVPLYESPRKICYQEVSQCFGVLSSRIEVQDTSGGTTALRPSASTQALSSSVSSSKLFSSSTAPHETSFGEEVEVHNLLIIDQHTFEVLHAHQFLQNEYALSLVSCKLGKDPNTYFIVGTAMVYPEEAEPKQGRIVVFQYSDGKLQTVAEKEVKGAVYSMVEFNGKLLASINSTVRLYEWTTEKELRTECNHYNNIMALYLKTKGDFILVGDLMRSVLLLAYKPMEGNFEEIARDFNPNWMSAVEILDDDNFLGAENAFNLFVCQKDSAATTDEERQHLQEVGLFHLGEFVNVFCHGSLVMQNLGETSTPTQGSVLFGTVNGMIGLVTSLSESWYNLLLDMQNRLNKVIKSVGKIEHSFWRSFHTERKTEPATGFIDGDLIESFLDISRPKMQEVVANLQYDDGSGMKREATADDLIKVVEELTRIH
Procedure: Fluorescence Direct Binding Protocol
Determination of the affinities of compounds to protein containing one or more tryptophan is measurable by monitoring the fluorescence emission in direct mode. The measurements, depending on the protein available amounts, were performed either manually in a cuvette on ISS-PCI photon counting spectrofluorometer or automatically in well plates on a fluorescence plate reader device. Fluorescence titrations were performed at 20° C. in the chosen binding assay buffer by using a defined constant protein concentration against ligand concentration variations. Small aliquots of known ligand concentration solubilized in DMSO were added and the fluorescence, excited at 280 nm, was recorded at 340 nm.
`O=C1NC(=O)C2(CCN(c3nc4ccccc4s3)CC2)N1` [Example 61, 8-(benzo[d]thiazol-2-yl)-1,3,8-triazaspiro[4.5]decane-2,4-dione]: the Kd was 2 nM. The figure for `O=C1NC(=O)C2(CCN(C(=O)c3coc4ccccc34)CC2)N1` [Example 66, 8-(benzofuran-3-carbonyl)-1,3,8-triazaspiro[4.5] decane-2,4-dione] is 1 nM; for `O=C1NC(=O)C2(CCN(C(=O)c3cnn4ccccc34)CC2)N1` [Example 67, 8-(pyrazolo[1,5-a]pyridine-3-carbonyl)-1,3,8-triazaspiro[4.5] decane-2,4-dione] it is < 1 nM; for `O=C1NC(=O)C2(CCN(c3ccc([N+](=O)[O-])cn3)CC2)N1` [Example 69, 8-(5-nitropyridin-2-yl)-1,3,8-triazaspiro[4.5] decane-2,4-dione] it is 7 nM. The figure for `O=C1CC2(CCN(c3ccc([N+](=O)[O-])cn3)CC2)C(=O)N1` [Example 70, 8-(5-nitropyridin-2-yl)-2,8-diazaspiro[4.5] decane-1,3-dione] is 23 nM; for `O=C1CC2(CCN(c3nc4ccccc4s3)CC2)C(=O)N1` [Example 71, 8-(benzo[d]thiazol-2-yl)-2,8-diazaspiro[4.5] decane-1,3-dione] it is 2 nM; for `O=C1NC(=O)C2(CCN(c3ccc([N+](=O)[O-])cc3)CC2)N1` [Example 72, 8-(4-nitrophenyl)-1,3,8-triazaspiro[4.5] decane-2,4-dione] it is < 1 nM. Then `COC(=O)c1ccc(N2CCC3(CC2)CC(=O)NC3=O)nc1` [Example 74, methyl 6-(1,3-dioxo-2,8-diazaspiro[4.5]decan-8-yl)nicotinate], with 11 nM. In the case of `O=C1CC2(CCN(C(=O)c3ccccc3)CC2)C(=O)N1` [Example 75, 8-benzoyl-2,8-diazaspiro[4.5] decane-1,3-dione], the Kd was < 1 nM. The figure for `O=C1NC(=O)C2(CCN(C(=O)c3ccc4scnc4c3)CC2)N1` [Example 81, 8-(benzo[d]thiazole-5-carbonyl)-1,3,8-triazaspiro[4.5] decane-2,4-dione] is 6 nM.

(Values after patent publication US11584748B2, “Spirocyclic compounds” (priority 2018, dated 2023).)
